Measurements as given in patent publication US6358885B1, “Substituted phenylheterocyclic herbicides” (Mississippi State University, priority 1992, dated 2002).

What was measured:
barley [1] = test: Test B preemergence/postemergence greenhouse plant response rating 0 to 10; format: in vivo, Hordeum vulgare; conditions: 0 to 10 scale
How it was run: (§1)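 Both application timings were run together: seeds got compound preemergence, and established seedlings (two to eighteen cm) got it postemergence. Non-phytotoxic solvent carried the chemical. Ratings are visual, versus controls, at twelve to sixteen days.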

bedstraw = test: as above; format: in vivo, Galium aparine; conditions: 0 to 10 scale
How it was run: as §1

chickweed [2] = test: as above; format: in vivo, Stellaria media; conditions: 0 to 10 scale
How it was run: as §1

cocklebur = test: as above; format: in vivo, Xanthium pensylvanicum; conditions: 0 to 10 scale
How it was run: as §1

morningglory = test: as above; format: in vivo, Ipomoea hederacea; conditions: 0 to 10 scale
How it was run: as §1

sorghum = test: as above; format: in vivo, Sorghum bicolor; conditions: 0 to 10 scale
How it was run: as §1

soybean [3] = test: as above; format: in vivo, Glycine max; conditions: 0 to 10 scale
How it was run: as §1

sugar beet = test: as above; format: in vivo, Beta vulgaris; conditions: 0 to 10 scale
How it was run: as §1

velvetleaf = test: as above; format: in vivo, Abutilon theophrasti; conditions: 0 to 10 scale
How it was run: as §1

wild buckwheat = test: as above; format: in vivo, Polygonum convolvulus; conditions: 0 to 10 scale
How it was run: as §1

barley [4] = test: Test C preemergence/postemergence greenhouse plant response rating 0 to 100; format: in vivo, Hordeum vulgare; conditions: POSTEMERGENCE; for Plant response rating Barley Igri: 0 to 100 scale
How it was run: (§2)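 Compounds in non-phytotoxic solvent went onto sandy loam before emergence (seeded one day earlier) or onto plants at the one-to-four leaf stage. Duck salad was treated via flood water (~2.5 cm, maintained) over silt loam.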

blackgrass = test: as above; format: in vivo, Alopecurus myosuroides; conditions: POSTEMERGENCE; for Plant response rating, Blackgrass: 0 to 100 scale
How it was run: as §2

chickweed [5] = test: as above; format: in vivo, Stellaria media; conditions: POSTEMERGENCE; for Plant response rating, Chickweed: 0 to 100 scale
How it was run: as §2

pigweed = test: as above; format: in vivo, Amaranthusretroflexus; conditions: POSTEMERGENCE; for Plant response rating Pigweed: 0 to 100 scale
How it was run: as §2

rape = test: as above; format: in vivo, Brassica napus; conditions: POSTEMERGENCE; for Plant response rating, Rape: 0 to 100 scale
How it was run: as §2

ryegrass = test: as above; format: in vivo, Lolium multiflorum; conditions: POSTEMERGENCE; for Plant response rating Ryegrass: 0 to 100 scale
How it was run: as §2

soybean [6] = test: as above; format: in vivo, Glycine max; conditions: POSTEMERGENCE; for Plant response rating, Soybean: 0 to 100 scale
How it was run: as §2

umbrella sedge = test: Test C flood test plant response rating 0 to 100; format: in vivo, Cyperus difformis; conditions: for Plant response rating Umbrella sedge: flood test species listed under POSTEMERGENCE, 0 to 100 scale
How it was run: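 Compounds in non-phytotoxic solvent applied preemergence to sandy loam one day after planting, postemergence at the 1–4 leaf stage, or to ~2.5 cm floodwater over silt loam.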

CCC(C)Oc1cc(-c2nn3c(c2Cl)CCCC3)c(F)cc1Cl (stereo not shown) [Compound 48]
4: Plant response rating, Chickweed (chickweed [2]; Rate 200 g/ha, PREEMERGENCE) | Plant response rating, Sorghum (sorghum; POSTEMERGENCE, Rate 50 g/ha) | Plant response rating, Velvetleaf (velvetleaf; Rate 200 g/ha, PREEMERGENCE)
9: Plant response rating, Bedstraw (bedstraw; POSTEMERGENCE, Rate 50 g/ha) | Plant response rating, Bedstraw (bedstraw; POSTEMERGENCE, Rate 200 g/ha) | Plant response rating, Bedstraw (bedstraw; Rate 200 g/ha, PREEMERGENCE) | Plant response rating, Chickweed (chickweed [2]; POSTEMERGENCE, Rate 50 g/ha) | Plant response rating, Cocklebur (cocklebur; POSTEMERGENCE, Rate 200 g/ha) | Plant response rating, Sugar beet (sugar beet; PREEMERGENCE, Rate 50 g/ha) | Plant response rating, Velvetleaf (velvetleaf; POSTEMERGENCE, Rate 50 g/ha) | Plant response rating, Wild buckwheat (wild buckwheat; PREEMERGENCE, Rate 50 g/ha) | Plant response rating, Wild buckwheat (wild buckwheat; Rate 200 g/ha, POSTEMERGENCE)
100: Plant response rating Pigweed (pigweed; 62 g/ha) | Plant response rating Pigweed (pigweed; 250 g/ha)
1: Plant response rating, Morningglory (morningglory; PREEMERGENCE, Rate 50 g/ha) | Plant response rating, Sorghum (sorghum; Rate 200 g/ha, PREEMERGENCE)
5: Plant response rating, Barley (barley [1]; POSTEMERGENCE, Rate 200 g/ha)
6: Plant response rating, Sorghum (sorghum; Rate 200 g/ha, POSTEMERGENCE)
90: Plant response rating (0 to 100), Pigweed (pigweed; Rate 16 g/ha) | Plant response rating, Rape (rape; 250 g/ha)
40: Plant response rating Barley Igri (barley [4]; 250 g/ha) | Plant response rating, Soybean (soybean [6]; 62 g/ha) | Plant response rating Umbrella sedge (umbrella sedge; 62 g/ha)
3: Plant response rating, Bedstraw (bedstraw; PREEMERGENCE, Rate 50 g/ha) | Plant response rating, Morningglory (morningglory; Rate 200 g/ha, PREEMERGENCE)
70: Plant response rating Umbrella sedge (umbrella sedge; 250 g/ha)
7: Plant response rating, Barley (barley [1]; POSTEMERGENCE, Rate 50 g/ha) | Plant response rating, Cocklebur (cocklebur; POSTEMERGENCE, Rate 50 g/ha) | Plant response rating, Soybean (soybean [3]; POSTEMERGENCE, Rate 50 g/ha) | Plant response rating, Soybean (soybean [3]; Rate 200 g/ha, POSTEMERGENCE)
60: Plant response rating, Blackgrass (blackgrass; 250 g/ha) | Plant response rating, Chickweed (chickweed [5]; 62 g/ha)
80: Plant response rating, Chickweed (chickweed [5]; 250 g/ha) | Plant response rating (0 to 100), Pigweed (pigweed; Rate 4 g/ha)
0: Plant response rating, Barley (barley [1]; PREEMERGENCE, Rate 50 g/ha) | Plant response rating, Barley (barley [1]; Rate 200 g/ha, PREEMERGENCE) | Plant response rating, Cocklebur (cocklebur; Rate 200 g/ha, PREEMERGENCE) | Plant response rating, Sorghum (sorghum; PREEMERGENCE, Rate 50 g/ha) | Plant response rating, Soybean (soybean [3]; PREEMERGENCE, Rate 50 g/ha) | Plant response rating, Soybean (soybean [3]; Rate 200 g/ha, PREEMERGENCE) | Plant response rating, Velvetleaf (velvetleaf; PREEMERGENCE, Rate 50 g/ha)
8: Plant response rating, Chickweed (chickweed [2]; POSTEMERGENCE, Rate 200 g/ha)
20: Plant response rating (0 to 100), Barley Igri (barley [4]; Rate 16 g/ha) | Plant response rating (0 to 100), Blackgrass (blackgrass; Rate 4 g/ha) | Plant response rating (0 to 100), Ryegrass (ryegrass; Rate 16 g/ha)
10: Plant response rating, Morningglory (morningglory; POSTEMERGENCE, Rate 50 g/ha) | Plant response rating, Morningglory (morningglory; Rate 200 g/ha, POSTEMERGENCE) | Plant response rating, Sugar beet (sugar beet; POSTEMERGENCE, Rate 50 g/ha) | Plant response rating, Sugar beet (sugar beet; Rate 200 g/ha, POSTEMERGENCE) | Plant response rating, Sugar beet (sugar beet; Rate 200 g/ha, PREEMERGENCE) | Plant response rating, Velvetleaf (velvetleaf; Rate 200 g/ha, POSTEMERGENCE) | Plant response rating, Wild buckwheat (wild buckwheat; POSTEMERGENCE, Rate 50 g/ha) | Plant response rating, Wild buckwheat (wild buckwheat; Rate 200 g/ha, PREEMERGENCE) | Plant response rating (0 to 100), Barley Igri (barley [4]; Rate 4 g/ha) | Plant response rating (0 to 100), Chickweed (chickweed [5]; Rate 4 g/ha) | Plant response rating (0 to 100), Ryegrass (ryegrass; Rate 4 g/ha) | Plant response rating (0 to 100), Umbrella sedge (umbrella sedge; POSTEMERGENCE section, flood test, Rate 4 g/ha) | Plant response rating (0 to 100), Umbrella sedge (umbrella sedge; Rate 16 g/ha, under POSTEMERGENCE head (flood test species))
30: Plant response rating Barley Igri (barley [4]; 62 g/ha) | Plant response rating (0 to 100), Blackgrass (blackgrass; Rate 16 g/ha) | Plant response rating (0 to 100), Chickweed (chickweed [5]; Rate 16 g/ha) | Plant response rating (0 to 100), Rape (rape; Rate 4 g/ha) | Plant response rating (0 to 100), Rape (rape; Rate 16 g/ha) | Plant response rating Ryegrass (ryegrass; 62 g/ha) | Plant response rating (0 to 100), Soybean (soybean [6]; Rate 4 g/ha) | Plant response rating (0 to 100), Soybean (soybean [6]; Rate 16 g/ha)
50: Plant response rating, Blackgrass (blackgrass; 62 g/ha) | Plant response rating, Rape (rape; 62 g/ha) | Plant response rating Ryegrass (ryegrass; 250 g/ha) | Plant response rating, Soybean (soybean [6]; 250 g/ha)
